Patent publication US10588893B2, “Ointment containing an oxazole compound” (OTSUKA PHARMACEUTICAL CO., LTD., priority 2015, dated 2020)

Legend:
[1] = Miscibility of compound (11) solvent solution with petrolatum; assay type: physicochemical
Excerpt: (§1) To select a solvent for dissolving compound (11) in preparing an ointment containing compound (11), the solubility of compound (11) in various solvents was studied. […] Such a case may result in precipitation of compound (11). Thus, a solvent that has a high solubility of compound (11) but that has […] miscibility (compatibility) with petrolatum or paraffin is relatively preferable for use.

[2] = Solubility of compound (11) in various solvents; assay type: physicochemical
Excerpt: as §1

Miscibility of Compound (11) Solvent Solution with Petrolatum ([1]; solvent: Decyl oleate): Miscible
Miscibility of Compound (11) Solvent Solution with Petrolatum ([1]; solvent: Diethyl sebacate): Miscible
Miscibility of Compound (11) Solvent Solution with Petrolatum ([1]; solvent: Diisopropyl adipate): Miscible
Miscibility of Compound (11) Solvent Solution with Petrolatum ([1]; solvent: Hexyldodecanol): Miscible
Miscibility of Compound (11) Solvent Solution with Petrolatum ([1]; solvent: Isopropyl myristate): Miscible
Miscibility of Compound (11) Solvent Solution with Petrolatum ([1]; solvent: Isostearic acid): Miscible
Miscibility of Compound (11) Solvent Solution with Petrolatum ([1]; solvent: Isostearyl alcohol): Miscible
Miscibility of Compound (11) Solvent Solution with Petrolatum ([1]; solvent: Liquid Paraffin): Miscible
Miscibility of Compound (11) Solvent Solution with Petrolatum ([1]; solvent: Olive oil): Miscible
Miscibility of Compound (11) Solvent Solution with Petrolatum ([1]; solvent: Propylene carbonate): Immiscible
Miscibility of Compound (11) Solvent Solution with Petrolatum ([1]; solvent: Triacetine): Immiscible
solubility of compound (11), in words ([2]; in triacetin and propylene carbonate): relatively high
Solubility (W/W %) ([2]; solvent: Decyl oleate): 2.6 W/W %
Solubility (W/W %) ([2]; solvent: Diethyl sebacate): 42.6 W/W %
Solubility (W/W %) ([2]; solvent: Diisopropyl adipate): 40.3 W/W %
Solubility (W/W %) ([2]; solvent: Hexyldodecanol): 5.4 W/W %
Solubility (W/W %) ([2]; solvent: Isopropyl myristate): 6.0 W/W %
Solubility (W/W %) ([2]; solvent: Isostearic acid): 19.8 W/W %
Solubility (W/W %) ([2]; solvent: Isostearyl alcohol): 5.1 W/W %
Solubility (W/W %) ([2]; solvent: Liquid Paraffin): 0.1 W/W %
Solubility (W/W %) ([2]; solvent: Olive oil): 6.1 W/W %
Solubility (W/W %) ([2]; solvent: Propylene carbonate): 56.9 W/W %
Solubility (W/W %) ([2]; solvent: Triacetine): 32.5 W/W %
SMILES: CCOc1ccccc1C(=O)NCc1coc(-c2ccc(OC(F)F)c(OC(C)C)c2)n1 [Compound (11)]
